Measured values published in ChEMBL document CHEMBL5506027, “Discovery of a Novel and Potent Cyclin-Dependent Kinase 8/19 (CDK8/19) Inhibitor for the Treatment of Cancer” (J Med Chem, 2024).

How the values were obtained:
MV4-11 = test: Antiproliferative activity against human MV4-11 cells incubated for 5 days by CellTiter-Glo luminescent cell viability assay; type: functional, cell-based; details: MV4-11, 120 h
[1] = molecular target: Cyclin-dependent kinase 8 (Homo sapiens, UniProt P49336); test: Inhibition of CDK8 (unknown origin) by HTRF assay
[2] = molecular target: T1, Cyclin-dependent kinase 19 (Homo sapiens, UniProt Q9BWU1); test: Inhibition of CDK19 (unknown origin) by HTRF assay
CDK7/Cyclin H/MNAT1 = CDK7/Cyclin H/MNAT1 (Homo sapiens, UniProt P50613); test: Inhibition of CDK7/cyclinH/MAT1 (unknown origin) by ADP-Glo chemiluminescence assay; type: protein-complex assay
CDK2/Cyclin A2 = CDK2/Cyclin A2 (Homo sapiens, UniProt P24941); test: Inhibition of CDK2/cyclinA2 (unknown origin) by ADP-Glo chemiluminescence assay; type: protein-complex assay
[3] = Inhibition of CDK1/cyclinA2 (unknown origin) by ADP-Glo chemiluminescence assay; parameters: species or system Homo sapiens
[4] = molecular target: Cyclin-dependent kinase 2/cyclin E1 (Homo sapiens, UniProt P24941); test: Inhibition of CDK2/cyclinE1 (unknown origin) by ADP-Glo chemiluminescence assay; type: protein-complex assay
[5] = molecular target: T2, Cyclin-dependent kinase 5/CDK5 activator 1 (Homo sapiens, UniProt Q00535); test: Inhibition of CDK5/p25NCK (unknown origin) by ADP-Glo chemiluminescence assay; type: protein-complex assay
[6] = molecular target: T2, Cyclin-dependent kinase 5/CDK5 activator 1; test: Inhibition of CDK5/p35NCK (unknown origin) by ADP-Glo chemiluminescence assay; type: protein-complex assay
CDK8/Cyclin C = CDK8/Cyclin C (Homo sapiens, UniProt P49336); test: Inhibition of CDK8/CyclinC (unknown origin) by ADP-Glo chemiluminescence assay; type: protein-complex assay
[7] = molecular target: T1, Cyclin-dependent kinase 19; test: Inhibition of CDK19 (unknown origin) by ADP-Glo assay
[8] = molecular target: Dual specificity protein kinase CLK1 (Homo sapiens, UniProt P49759); test: Inhibition of CLK1 (unknown origin) by ADP-Glo assay
[9] = molecular target: Dual specificity protein kinase CLK2 (Homo sapiens, UniProt P49760); test: Inhibition of CLK2 (unknown origin) by ADP-Glo assay
[10] = molecular target: Dual specificity protein kinase CLK4 (Homo sapiens, UniProt Q9HAZ1); test: Inhibition of CLK4 (unknown origin) by ADP-Glo assay
[11] = molecular target: Serine/threonine-protein kinase pim-2 (Homo sapiens, UniProt Q9P1W9); test: Inhibition of PIM2 (unknown origin) by ADP-Glo assay
[12] = molecular target: Casein kinase II subunit alpha' (Homo sapiens, UniProt P19784); test: Inhibition of CSNK2A2 (unknown origin) by ADP-Glo assay
[13] = molecular target: Casein kinase I isoform alpha (Homo sapiens, UniProt P48729); test: Inhibition of CSNK1A1 (unknown origin) by ADP-Glo assay
[14] = molecular target: Homeodomain-interacting protein kinase 3 (Homo sapiens, UniProt Q9H422); test: Inhibition of HIPK3 (unknown origin) by ADP-Glo assay
[15] = molecular target: Dual specificity tyrosine-phosphorylation-regulated kinase 1A (Homo sapiens, UniProt Q13627); test: Inhibition of DYRK1A (unknown origin) by ADP-Glo assay
[16] = molecular target: Rho-associated protein kinase 1 (Homo sapiens, UniProt Q13464); test: Inhibition of ROCK1 (unknown origin) by ADP-Glo assay
[17] = molecular target: Serine/threonine-protein kinase haspin (Homo sapiens, UniProt Q8TF76); test: Inhibition of HASPIN (unknown origin) by ADP-Glo assay
[18] = molecular target: Serine/threonine-protein kinase TAO1 (Homo sapiens, UniProt Q7L7X3); test: Inhibition of TAOK1 (unknown origin) by ADP-Glo assay
[19] = molecular target: Mitogen-activated protein kinase 15 (Homo sapiens, UniProt Q8TD08); test: Inhibition of ERK8 (unknown origin) by ADP-Glo assay
Cytochrome P450 1A2 [20] = molecular target: T3, Cytochrome P450 1A2 (Homo sapiens, UniProt P05177); test: Inhibition of CYP1A2 (unknown origin) in absence of NADPH; type: ADME
T3 sequence (P05177 whole entry): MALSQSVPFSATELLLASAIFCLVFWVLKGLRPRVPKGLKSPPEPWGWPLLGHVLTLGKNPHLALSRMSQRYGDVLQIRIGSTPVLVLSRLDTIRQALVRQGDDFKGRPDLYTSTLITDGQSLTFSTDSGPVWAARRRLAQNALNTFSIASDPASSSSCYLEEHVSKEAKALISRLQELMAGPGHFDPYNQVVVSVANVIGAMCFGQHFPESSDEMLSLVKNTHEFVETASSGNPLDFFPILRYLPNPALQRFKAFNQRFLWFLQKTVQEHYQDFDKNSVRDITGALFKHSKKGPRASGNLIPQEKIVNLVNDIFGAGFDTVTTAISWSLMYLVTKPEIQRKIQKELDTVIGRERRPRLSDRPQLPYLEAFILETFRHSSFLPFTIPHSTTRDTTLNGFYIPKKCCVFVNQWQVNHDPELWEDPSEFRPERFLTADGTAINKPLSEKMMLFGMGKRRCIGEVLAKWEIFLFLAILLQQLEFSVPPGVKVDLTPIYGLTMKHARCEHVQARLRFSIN

Cytochrome P450 1A2 [21] = molecular target: T3, Cytochrome P450 1A2; test: Inhibition of CYP1A2 (unknown origin) preincubated for 30 mins in presence of NADPH; type: ADME
[22] = molecular target: Voltage-gated inwardly rectifying potassium channel KCNH2 (Homo sapiens, UniProt Q12809); test: Inhibition of human ERG; type: toxicity
[23] = Clearance in mouse at 1 mg/kg, iv measured upto 24 hrs by LC-MS/MS anlaysis; type: ADME, organism-based; details: in vivo
[24] = Volume of distribution at steady state in mouse at 1 mg/kg, iv measured upto 24 hrs by LC-MS/MS anlaysis; type: ADME, organism-based; details: in vivo, read-out: Vdss
[25] = Half-life in mouse at 1 mg/kg, iv measured upto 24 hrs by LC-MS/MS anlaysis; type: ADME, organism-based; details: in vivo
[26] = Clearance in rat at 1 mg/kg, iv measured upto 24 hrs by LC-MS/MS anlaysis; type: ADME, organism-based; details: in vivo
[27] = Volume of distribution at steady state in rat at 1 mg/kg, iv measured upto 24 hrs by LC-MS/MS anlaysis; type: ADME, organism-based; details: in vivo, read-out: Vdss
[28] = Half-life in rat at 1 mg/kg, iv measured upto 24 hrs by LC-MS/MS anlaysis; type: ADME, organism-based; details: in vivo
[29] = Clearance in dog at 1 mg/kg, iv measured upto 24 hrs by LC-MS/MS anlaysis; type: ADME, organism-based, Canis lupus familiaris; details: in vivo
[30] = Volume of distribution at steady state in dog at 1 mg/kg, iv measured upto 24 hrs by LC-MS/MS anlaysis; type: ADME, organism-based, Canis lupus familiaris; details: in vivo, read-out: Vdss
[31] = Half-life in dog at 1 mg/kg, iv measured upto 24 hrs by LC-MS/MS anlaysis; type: ADME, organism-based, Canis lupus familiaris; details: in vivo
[32] = molecular target: CDK18/Cyclin Y (Homo sapiens) (UniProt Q07002+Q8ND76); test: Inhibition of CDK18/cyclinY (unknown origin) at 1 uM by luminescence based assay relative to control; type: protein-complex assay
[33] = AUC(0 to 24 hrs) in dog at 5 mg/kg, po measured upto 24 hrs by LC-MS/MS analysis; type: ADME, organism-based, Canis lupus familiaris; details: in vivo
[34] = Dose normalized AUC in monkey at 5 mg/kg, po measured upto 24 hrs by LC-MS/MS analysis; type: ADME, organism-based, Macaca mulatta; details: rhesus monkey, in vivo

T1 sequence (Q9BWU1 whole entry): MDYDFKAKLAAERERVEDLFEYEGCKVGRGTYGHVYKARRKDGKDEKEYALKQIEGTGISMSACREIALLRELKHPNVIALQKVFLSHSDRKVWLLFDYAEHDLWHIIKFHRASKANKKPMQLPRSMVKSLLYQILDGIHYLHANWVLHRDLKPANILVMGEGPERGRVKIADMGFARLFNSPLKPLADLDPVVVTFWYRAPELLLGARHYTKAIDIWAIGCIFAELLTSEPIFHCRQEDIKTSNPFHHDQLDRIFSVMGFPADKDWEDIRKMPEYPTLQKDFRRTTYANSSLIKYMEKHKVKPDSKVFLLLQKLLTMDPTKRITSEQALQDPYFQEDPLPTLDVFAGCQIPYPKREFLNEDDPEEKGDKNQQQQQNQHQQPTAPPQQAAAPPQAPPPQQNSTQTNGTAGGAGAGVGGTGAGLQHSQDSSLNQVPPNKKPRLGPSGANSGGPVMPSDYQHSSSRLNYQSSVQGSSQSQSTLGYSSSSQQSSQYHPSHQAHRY
T2 sequence (Q00535 whole entry): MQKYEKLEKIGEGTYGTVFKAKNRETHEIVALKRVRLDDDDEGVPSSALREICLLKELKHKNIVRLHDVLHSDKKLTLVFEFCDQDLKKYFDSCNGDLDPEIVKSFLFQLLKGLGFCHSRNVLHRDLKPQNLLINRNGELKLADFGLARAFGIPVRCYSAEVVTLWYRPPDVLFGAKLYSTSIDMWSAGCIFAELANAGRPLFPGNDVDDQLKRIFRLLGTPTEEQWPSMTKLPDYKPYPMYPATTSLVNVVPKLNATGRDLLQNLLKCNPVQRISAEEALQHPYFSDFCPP
T2 sequence (Q15078 whole entry, further chain): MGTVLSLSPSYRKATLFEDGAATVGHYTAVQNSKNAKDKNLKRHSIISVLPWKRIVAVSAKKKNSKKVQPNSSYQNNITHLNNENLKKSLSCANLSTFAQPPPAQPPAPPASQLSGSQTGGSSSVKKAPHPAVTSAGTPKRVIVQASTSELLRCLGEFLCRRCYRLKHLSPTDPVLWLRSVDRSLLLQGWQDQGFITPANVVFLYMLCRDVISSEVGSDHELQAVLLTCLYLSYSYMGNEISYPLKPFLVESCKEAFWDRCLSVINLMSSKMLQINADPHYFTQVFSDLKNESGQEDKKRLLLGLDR
Serine/threonine-protein kinase pim-2, sequence (Q9P1W9 whole entry): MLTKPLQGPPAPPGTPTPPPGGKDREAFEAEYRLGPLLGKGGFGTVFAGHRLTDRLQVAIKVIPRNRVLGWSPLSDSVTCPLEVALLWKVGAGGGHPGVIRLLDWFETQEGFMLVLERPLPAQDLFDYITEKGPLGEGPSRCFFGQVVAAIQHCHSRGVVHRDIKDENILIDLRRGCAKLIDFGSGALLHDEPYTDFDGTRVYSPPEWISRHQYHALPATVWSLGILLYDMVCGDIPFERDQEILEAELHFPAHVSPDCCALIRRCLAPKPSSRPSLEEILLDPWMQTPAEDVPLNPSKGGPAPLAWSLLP
Dual specificity protein kinase CLK1, sequence (P49759 whole entry): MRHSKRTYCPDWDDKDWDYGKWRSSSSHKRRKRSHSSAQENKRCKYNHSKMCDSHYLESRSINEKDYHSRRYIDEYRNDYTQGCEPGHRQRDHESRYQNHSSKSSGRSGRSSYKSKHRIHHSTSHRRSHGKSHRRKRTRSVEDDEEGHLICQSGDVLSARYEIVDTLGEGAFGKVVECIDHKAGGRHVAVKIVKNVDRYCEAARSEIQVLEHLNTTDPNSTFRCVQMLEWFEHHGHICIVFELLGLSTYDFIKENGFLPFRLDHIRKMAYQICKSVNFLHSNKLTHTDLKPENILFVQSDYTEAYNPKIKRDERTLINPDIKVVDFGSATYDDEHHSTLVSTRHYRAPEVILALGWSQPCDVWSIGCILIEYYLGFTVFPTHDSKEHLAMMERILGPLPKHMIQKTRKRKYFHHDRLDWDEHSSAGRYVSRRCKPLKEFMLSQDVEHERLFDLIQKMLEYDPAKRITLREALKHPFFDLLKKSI
Casein kinase I isoform alpha, sequence (P48729 whole entry, canonical isoform): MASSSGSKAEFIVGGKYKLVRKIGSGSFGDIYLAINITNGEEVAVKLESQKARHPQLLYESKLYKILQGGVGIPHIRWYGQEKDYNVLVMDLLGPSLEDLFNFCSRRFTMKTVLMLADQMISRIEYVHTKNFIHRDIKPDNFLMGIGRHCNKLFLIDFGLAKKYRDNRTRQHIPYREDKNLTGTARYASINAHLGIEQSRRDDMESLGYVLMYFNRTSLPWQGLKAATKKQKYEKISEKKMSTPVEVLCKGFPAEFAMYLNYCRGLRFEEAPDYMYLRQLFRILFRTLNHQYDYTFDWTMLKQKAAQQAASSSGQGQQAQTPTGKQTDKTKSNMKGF
Cyclin-dependent kinase 8, sequence (P49336 whole entry): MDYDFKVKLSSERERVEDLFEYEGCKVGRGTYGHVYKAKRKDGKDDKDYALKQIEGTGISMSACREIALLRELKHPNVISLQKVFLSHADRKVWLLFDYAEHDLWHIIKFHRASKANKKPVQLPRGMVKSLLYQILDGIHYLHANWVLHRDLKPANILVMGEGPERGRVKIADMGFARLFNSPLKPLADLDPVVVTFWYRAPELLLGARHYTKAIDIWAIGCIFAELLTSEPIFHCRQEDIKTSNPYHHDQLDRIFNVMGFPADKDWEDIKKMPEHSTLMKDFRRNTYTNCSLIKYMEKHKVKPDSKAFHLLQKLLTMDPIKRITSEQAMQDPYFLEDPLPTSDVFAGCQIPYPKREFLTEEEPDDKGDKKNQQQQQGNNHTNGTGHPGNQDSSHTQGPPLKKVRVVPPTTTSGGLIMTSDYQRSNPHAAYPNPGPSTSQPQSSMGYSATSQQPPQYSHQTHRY
CDK8/Cyclin C, sequence (P49336 whole entry): as above
CDK8/Cyclin C, sequence (P24863 whole entry, further chain): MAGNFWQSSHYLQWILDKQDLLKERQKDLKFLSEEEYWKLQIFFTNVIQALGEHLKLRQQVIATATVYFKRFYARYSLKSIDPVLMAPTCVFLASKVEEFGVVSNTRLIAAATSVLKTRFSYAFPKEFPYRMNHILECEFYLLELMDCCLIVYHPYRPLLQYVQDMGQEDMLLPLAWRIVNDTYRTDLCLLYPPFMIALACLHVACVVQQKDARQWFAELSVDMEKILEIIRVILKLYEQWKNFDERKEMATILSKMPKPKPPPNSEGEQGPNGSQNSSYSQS
CDK7/Cyclin H/MNAT1, sequence (P51946 whole entry): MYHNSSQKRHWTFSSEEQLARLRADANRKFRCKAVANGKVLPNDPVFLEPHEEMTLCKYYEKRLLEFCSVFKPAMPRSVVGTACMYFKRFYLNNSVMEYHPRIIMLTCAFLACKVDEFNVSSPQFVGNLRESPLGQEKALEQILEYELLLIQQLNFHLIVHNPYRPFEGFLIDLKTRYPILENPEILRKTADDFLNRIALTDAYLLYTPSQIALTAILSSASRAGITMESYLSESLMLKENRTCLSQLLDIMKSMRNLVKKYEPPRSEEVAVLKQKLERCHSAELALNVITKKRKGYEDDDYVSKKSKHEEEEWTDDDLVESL
CDK7/Cyclin H/MNAT1, sequence (P50613 whole entry): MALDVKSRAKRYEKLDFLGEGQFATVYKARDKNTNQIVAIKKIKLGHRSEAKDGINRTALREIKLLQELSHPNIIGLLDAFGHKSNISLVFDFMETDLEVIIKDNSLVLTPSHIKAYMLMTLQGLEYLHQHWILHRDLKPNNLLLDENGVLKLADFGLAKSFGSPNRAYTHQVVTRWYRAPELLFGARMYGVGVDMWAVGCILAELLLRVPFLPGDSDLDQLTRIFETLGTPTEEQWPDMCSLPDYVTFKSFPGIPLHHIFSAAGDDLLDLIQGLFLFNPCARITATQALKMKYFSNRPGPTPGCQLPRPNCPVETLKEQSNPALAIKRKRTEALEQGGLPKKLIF
CDK7/Cyclin H/MNAT1, sequence (P51948 whole entry, further chain): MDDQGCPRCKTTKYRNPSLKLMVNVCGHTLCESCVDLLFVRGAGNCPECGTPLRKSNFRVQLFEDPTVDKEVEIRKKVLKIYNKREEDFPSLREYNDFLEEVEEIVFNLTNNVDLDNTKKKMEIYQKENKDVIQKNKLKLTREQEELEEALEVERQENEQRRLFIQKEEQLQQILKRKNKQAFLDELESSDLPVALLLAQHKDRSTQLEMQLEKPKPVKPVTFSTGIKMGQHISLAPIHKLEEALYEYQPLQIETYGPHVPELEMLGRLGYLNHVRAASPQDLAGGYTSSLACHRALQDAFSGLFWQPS
Dual specificity protein kinase CLK4, sequence (Q9HAZ1 whole entry): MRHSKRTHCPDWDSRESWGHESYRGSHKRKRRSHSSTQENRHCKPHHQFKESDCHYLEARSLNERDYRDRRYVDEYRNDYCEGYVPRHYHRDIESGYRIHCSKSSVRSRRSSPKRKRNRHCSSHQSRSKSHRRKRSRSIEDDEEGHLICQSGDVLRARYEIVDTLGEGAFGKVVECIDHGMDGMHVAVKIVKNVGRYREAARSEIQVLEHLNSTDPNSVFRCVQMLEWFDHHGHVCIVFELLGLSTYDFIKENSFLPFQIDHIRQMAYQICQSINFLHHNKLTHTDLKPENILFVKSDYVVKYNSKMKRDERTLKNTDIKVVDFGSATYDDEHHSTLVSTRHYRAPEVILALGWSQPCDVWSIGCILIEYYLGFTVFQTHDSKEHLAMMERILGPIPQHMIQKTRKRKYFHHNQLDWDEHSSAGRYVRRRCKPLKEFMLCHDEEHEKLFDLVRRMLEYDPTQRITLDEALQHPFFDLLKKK
Casein kinase II subunit alpha', sequence (P19784 whole entry, canonical isoform): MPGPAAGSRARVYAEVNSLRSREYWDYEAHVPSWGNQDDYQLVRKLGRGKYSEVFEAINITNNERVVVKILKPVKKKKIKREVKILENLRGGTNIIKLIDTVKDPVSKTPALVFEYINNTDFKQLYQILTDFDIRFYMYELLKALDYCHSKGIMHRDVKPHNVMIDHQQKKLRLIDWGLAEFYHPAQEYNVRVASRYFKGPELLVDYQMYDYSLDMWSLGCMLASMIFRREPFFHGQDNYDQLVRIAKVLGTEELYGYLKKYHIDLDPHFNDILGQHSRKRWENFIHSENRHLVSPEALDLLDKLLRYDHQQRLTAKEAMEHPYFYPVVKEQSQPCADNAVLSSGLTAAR

| IC50 (MV4-11) | IC50 [1] | IC50 [2] | IC50 (CDK7/Cyclin H/MNAT1) | IC50 (CDK2/Cyclin A2) | IC50 [3] | IC50 [4] | IC50 [5] | IC50 [6] | IC50 (CDK8/Cyclin C) | IC50 [7] | IC50 [8] | IC50 [9] | IC50 [10] | IC50 [11] | IC50 [12] | IC50 [13] | IC50 [14] | IC50 [15] | IC50 [16] | SMILES | also measured |
| --- | --- | --- | --- | --- | --- | --- | --- | --- | --- | --- | --- | --- | --- | --- | --- | --- | --- | --- | --- | --- | --- |
| 43.8 nM | 14.5 nM | 19.1 nM | 51 nM | 4.7 nM | 20.5 nM | 0.968 nM | 1.66 nM | 1.34 nM | 17.5 nM | 25.1 nM | 5.3 nM | 21 nM | 2.7 nM | 298 nM | 279 nM | 1390 nM | 132 nM | 332 nM | 717 nM | Cc1c(Br)c(Br)c2c3c1nc(N1CCNCC1)n3CCC2 [SEL-120 FREE BASE] | IC50 [17]: 46 nM; IC50 [18]: > 10 µM; IC50 [19]: 1340 nM; IC50 (Cytochrome P450 1A2 [20]): 0.16 µM; IC50 (Cytochrome P450 1A2 [21]): 40 nM; IC50 [22]: 0.7 µM; clearance [23]: 81 mL/min/kg; Vd [24]: 19.2 L/kg; half-life [25]: 181 min; clearance [26]: 246 mL/min/kg; Vd [27]: 32.3 L/kg; half-life [28]: 106 min; clearance [29]: 30 mL/min/kg; Vd [30]: 6.23 L/kg; half-life [31]: 162 min |
| 5.7 nM | 2.08 nM | 2.49 nM | 197 nM | 42.6 nM | 236 nM | 31.4 nM | 87.4 nM | 194 nM | 7.5 nM | 25.1 nM | 8.2 nM | 14.3 nM | 2.9 nM | 124 nM | 64.9 nM | 132 nM | 503 nM | 158 nM | 353 nM | FC(F)c1c(Br)c(Br)cc2c1nc(N1CCNCC1)n2C1CCOCC1 | inhibition [32]: 65%; IC50 [17]: 13.6 nM; IC50 [18]: 6.68 µM; IC50 [19]: 59.7 nM; IC50 (Cytochrome P450 1A2 [20]): 8.58 µM; IC50 (Cytochrome P450 1A2 [21]): 4580 nM; IC50 [22]: 5.8 µM; clearance [23]: 14 mL/min/kg; Vd [24]: 5.96 L/kg; half-life [25]: 302 min; clearance [26]: 70 mL/min/kg; Vd [27]: 13.3 L/kg; half-life [28]: 152 min; clearance [29]: 12 mL/min/kg; Vd [30]: 4.31 L/kg; half-life [31]: 285 min; AUC(0-t) at 24 h [33]: 5590 ng·h/mL; AUC/dose [34]: 2503 ng·h/mL |
